In patent US6642250B2, “1,8-naphthyridin-2(1H)-one derivatives” (Grelan Pharmaceutical Co., Ltd., priority 1999, dated 2003):
Read-outs that look alike come from different tables or passages of the source.

Columns and labels:
[1] = test system: LPS-induced TNFα production in mouse peritoneal macrophages; assay: Inhibition of TNF-α production in LPS-stimulated macrophages; format: cell-based; conditions: Peritoneal macrophage, LPS 0.1 μg/ml, 4 hours
Method: In order to measure inhibitory activity on LPS-induced TNFα production in mouse peritoneal macrophages according to Eur. J. Pharmacol., 230, 9-14 (1993), the following assay was employed. 1) Preparation of Mouse Peritoneal Macrophages Ten percent proteose peptone (2 ml/animal) was administered intraperitoneally to male C3H/HeN mice (6- to 8-week-old) for inducing peritoneal macrophages. Four days after the proteose peptone administration, mice were sacrificed by the dislocation of cervical vertebrate, bled with cutting of their carotid artery, douched intraperitoneally with ice-cooled RPMI 1640 (6 ml), massaged, and lavage fluids wherein peritoneal exudate cells suspended were harvested. The resulting cell suspension was centrifuged at 200×g, and obtained cell pellets were treated with a Tris-ammonium buffer for 1 minute to hemolyze erythrocyte contaminants. The resulting cells were washed twice with 10% FBS/RPMI 1640, resuspended, and seeded on 96-well plates (Sumitomo Bakelite, Japan) at 5×10^5 cells/0.2 ml/well. After pre-incubation for 2 hours in an atmosphere of 5% CO2/95% air, each well was rinsed 3 times with PBS(−) to remove non-adhesive cells. 2) Cell Treatment Each test compound was dissolved in DMSO, and then in 10% FBS/RPMI 1640 to make the final DMSO concentration 0.1%. The resultant test compound solution was used herein. After pre-incubation for 0.5 hr in the above test compound solution, an aliquot of macrophages prepared in the above (1) was admixed with LPS (E. coli serotype 0127: B8; Sigma) to adjust the final LPS concentration to 0.1 μg/ml. Four hours later, culture supernatants were harvested and stored at −80° C. Amounts of TNFα in the culture supernatants were measured with a mouse TNFα ELISA kit (Quantikine/trade name; R & D Systems) according to manuals attached to the kit. For control groups, an aliquot of macrophages prepared in the above (1) was admixed with LPS to adjust the final LPS concentration to 0.1 μg/ml and then treated in the same manner as aforementioned. The resultant samples were used in obtaining the concentration of each test compound required for 50% inhibition (IC50) to each control group.

PDE II = molecular target: T1, PDE II (Sus scrofa, UniProt F1SUV3); assay: PDE inhibition, type II PDE (cAMP substrate, cGMP added); format: biochemical; conditions: PDE II from porcine hearts, cAMP 1 μM; read-out: Inhibition of PDE Isoenzymes (IC50) II
T1 sequence (F1SUV3 1-945): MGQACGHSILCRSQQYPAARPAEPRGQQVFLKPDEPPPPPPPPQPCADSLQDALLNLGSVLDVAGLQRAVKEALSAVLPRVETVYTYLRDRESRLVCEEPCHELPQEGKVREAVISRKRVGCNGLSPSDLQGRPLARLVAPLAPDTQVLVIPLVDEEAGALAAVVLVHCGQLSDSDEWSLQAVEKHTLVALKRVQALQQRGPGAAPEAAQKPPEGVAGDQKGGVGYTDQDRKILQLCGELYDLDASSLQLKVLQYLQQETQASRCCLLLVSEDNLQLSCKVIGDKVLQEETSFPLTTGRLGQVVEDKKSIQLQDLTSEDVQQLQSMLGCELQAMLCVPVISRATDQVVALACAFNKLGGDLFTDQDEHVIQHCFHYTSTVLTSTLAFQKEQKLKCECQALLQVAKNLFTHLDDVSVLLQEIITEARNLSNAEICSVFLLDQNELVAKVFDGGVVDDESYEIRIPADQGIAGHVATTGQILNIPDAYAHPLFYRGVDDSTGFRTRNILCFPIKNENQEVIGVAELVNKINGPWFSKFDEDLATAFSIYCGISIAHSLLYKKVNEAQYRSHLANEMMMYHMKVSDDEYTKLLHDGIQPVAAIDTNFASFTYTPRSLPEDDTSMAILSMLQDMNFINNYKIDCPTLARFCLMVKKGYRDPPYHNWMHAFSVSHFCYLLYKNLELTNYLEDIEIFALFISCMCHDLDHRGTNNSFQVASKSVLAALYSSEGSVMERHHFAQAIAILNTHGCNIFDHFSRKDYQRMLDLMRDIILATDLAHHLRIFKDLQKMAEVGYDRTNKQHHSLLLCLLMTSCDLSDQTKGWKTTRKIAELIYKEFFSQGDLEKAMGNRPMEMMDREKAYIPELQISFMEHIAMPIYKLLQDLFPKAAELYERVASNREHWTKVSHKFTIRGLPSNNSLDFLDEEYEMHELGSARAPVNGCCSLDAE
Method: The assays for PDE activity were conducted according to Nicholson et al. method (Br. J. Pharmacol., 97, 889 (1989)).
Among PDE isozymes, type I, II, III and IV PDEs as used herein were separated from porcine hearts by using an anion exchange chromatography. Type V PDE was also separated from porcine aortae with an anion exchange chromatography and used herein.
Each PDE isozyme was admixed with ethylene glycol (EG) to adjust the final EG concentration to 30%, then stored at −20° C. and diluted when used. The enzymatic activity for PDE I and V was measured using cGMP as a substrate while that for POE II, III and IV was measured using cAMP.
[^3H]-cAMP (962 GBq/mmol; Amersham, 25 μl (100,000 cpm)) or [^3H]-cGMP (962 GBq/mmol; Amersham, 25 μl (100,000 cpm)) was added together with each PDE isozyme (25 μl) to an incubation buffer solution with the composition given below to adjust the total volume to 250 μl. Each test compound was dissolved in DMSO to adjust the final concentration to 1% (2.5 μl/tube).
Incubation buffer solution (pH7.5):
Tris-HCl (50 mM), magnesium chloride (6 mM), dithiothreitol
(2.5 mM), 5-nucleotidase (4 μg/ml), bovine serum albumin
(0.23 mg/ml), and cAMP (1 μM) [or cGMP (1 μM)]
A mixture of the aforementioned test compound solution and the buffer solution was incubated at 30° C. for 20 minutes. The reaction was quenched by admixing with 1 ml of anion exchange resin slurry (AG1-X8, 200-400 meshes, chloride form; Bio-Rad) to absorb unreacted substrates.
After the reaction stopped, the mixture was centrifuged at 200×g for 10 minutes, and the resulting supernatant was collected with vials in 250 μl aliquots. To each vial was added 5 ml of ACS-II (scintillator, Amersham). The radioactivity was measured with a liquid scintillator counter for [^3H]-adenosine or [^3H]-guanosine and set as the PDE activity. The measurements were conducted under conditions wherein the enzymatic activity was elevated by adding calmodulin (20 U/ml; Amersham) and calcium chloride (0.1 mM) for PDE-I and cGMP (1 μM) for PDE II, respectively.
The % inhibition was calculated for test compounds, and IC50 (the concentration of each test compound required for 50% inhibition) was obtained by Probit method. The aforementioned rolipram ((−)-isomer, optical purity: 91% e.e.) known as the PDE IV inhibitor in the prior art was used for the reference compound in this assay.

[2] = read-out: IC50 for inhibition of TNF-α production
[3] = read-out: IC50 for inhibition of TNF-α production (molar)

| Compound | IC50 (PDE II) [µM] | IC50 [1, 2] [µg/mL] | IC50 [1, 3] [µM] |
| --- | --- | --- | --- |
| COc1ccc(C2CNC(=O)C2)cc1OC1CCCC1 (single isomer, unassigned) [Rolipram, rolipram, reference compound] | > 100 | 0.37 | ~1.3 |
| O=c1c(CCc2ccncc2)cc2cccnc2n1-c1cccc([N+](=O)[O-])c1 [Example No. 6, 1-(3-Nitrophenyl)-3-[2-(pyridin-4-yl)ethyl]-1,8-naphthyridin-2(1H)-one] | > 100 | – | – |
| O=c1c(CCCc2cccnc2)cc2cccnc2n1-c1cccc([N+](=O)[O-])c1 [Example No. 7, 1-(3-Nitrophenyl)-3-[3-(pyridin-3-yl)propyl]-1,8-naphthyridin-2(1H)-one] | > 100 | – | – |
| O=c1c(CCCc2ccncc2)cc2cccnc2n1-c1cccc([N+](=O)[O-])c1 [Example No. 8, 1-(3-Nitrophenyl)-3-[3-(pyridin-4-yl)propyl]-1,8-naphthyridin-2(1H)-one] | > 100 | 0.34 | ~0.88 |
| O=c1c(CCCc2ccncc2)cc2cccnc2n1-c1cccnc1 [Example No. 23, 1-(Pyridin-3-yl)-3-[3-(pyridin-4-yl)propyl]-1,8-naphthyridin-2(1H)-one] | > 100 | – | – |

More lines, main results first:

| IC50 (PDE II) [µM] | Compound | IC50 [1, 2] [µg/mL] | IC50 [1, 3] [µM] |
| --- | --- | --- | --- |
| > 100 | O=c1c(Cc2cccnc2)cc2cccnc2n1-c1cccc([N+](=O)[O-])c1 [Example No. 2, 1-(3-Nitrophenyl)-3-(pyridin-3-ylmethyl)-1,8-naphthyridin-2(1H)-one] | – | – |
| > 100 | O=c1c(CCc2cccnc2)cc2cccnc2n1-c1cccc([N+](=O)[O-])c1 [Example No. 5, 1-(3-Nitrophenyl)-3-[2-(pyridin-3-yl)ethyl]-1,8-naphthyridin-2(1H)-one] | – | – |
| 52 | CSc1cccc(-n2c(=O)c(CCCc3ccncc3)cc3cccnc32)c1 [Example No. 10, 1-(3-Methylthiophenyl)-3-[3-(pyridin-4-yl)propyl]-1,8-naphthyridin-2(1H)-one] | – | – |
| 85 | O=c1c(CCCCc2cccnc2)cc2cccnc2n1-c1cccc([N+](=O)[O-])c1 [Example No. 14, 1-(3-Nitrophenyl)-3-[4-(pyridin-3-yl)butyl]-1,8-naphthyridin-2(1H)-one] | – | – |
| 63 | O=c1c(CCCCCc2cccnc2)cc2cccnc2n1-c1cccc([N+](=O)[O-])c1 [Example No. 16, 1-(3-Nitrophenyl)-3-[5-(pyridin-3-yl)pentyl]-1,8-naphthyridin-2(1H)-one] | – | – |
